According to US20120252796A1, “COMPOUNDS FOR THE TREATMENT OF DYSLIPIDEMIA AND RELATED DISEASES” (priority 2009, published 2012):
One block for each compound: values may come before it.

Target: PCSK9 (Homo sapiens, UniProt Q8NBP7)
Assay: PCSK9-LDLR in vitro Binding Assay (ELISA)
Conditions: for inhibition at 5 µM: Concentration 5 μM
Protocol: The PCSK9-LDLR in vitro Binding Assay is a quantitative solid phase binding assay between PCSK9 and recombinant LDLR. Plates were pre-coated with a recombinant LDLR-AB domain, which binds PCSK9. Test compound at different concentration was added to the PCSK9 and added to LDLR immobilized on the wells. The amount of bound PCSK9 is measured by binding it with biotinylated anti-His-tag monoclonal antibody, followed by binding with horseradish peroxidase conjugated streptavidin substrate. The color was quantified by ELISA reader at […] which reflects the relative amount of PCSK9 that binds to LDLR in presence and absence of the inhibitor. EC50 values were calculated by nonlinear regression analysis using graph pad prism software. Each concentration point represents values in duplicates.

Sequence of PCSK9 (Q8NBP7 153-692): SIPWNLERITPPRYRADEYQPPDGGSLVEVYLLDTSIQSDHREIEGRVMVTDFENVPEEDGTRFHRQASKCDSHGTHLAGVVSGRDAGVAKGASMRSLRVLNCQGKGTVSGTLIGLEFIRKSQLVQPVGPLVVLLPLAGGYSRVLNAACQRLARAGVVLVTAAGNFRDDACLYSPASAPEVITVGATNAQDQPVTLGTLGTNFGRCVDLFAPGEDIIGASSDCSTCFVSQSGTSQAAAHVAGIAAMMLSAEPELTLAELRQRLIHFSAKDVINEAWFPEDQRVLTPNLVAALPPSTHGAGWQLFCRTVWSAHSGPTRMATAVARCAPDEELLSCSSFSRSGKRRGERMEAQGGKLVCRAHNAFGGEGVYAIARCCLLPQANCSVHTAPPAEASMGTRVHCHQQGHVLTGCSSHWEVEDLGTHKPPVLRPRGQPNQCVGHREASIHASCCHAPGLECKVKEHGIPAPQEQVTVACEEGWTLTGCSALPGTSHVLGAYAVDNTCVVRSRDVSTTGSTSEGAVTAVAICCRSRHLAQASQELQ
Sequence of PCSK9 (Q8NBP7 31-152 partner limits assumed): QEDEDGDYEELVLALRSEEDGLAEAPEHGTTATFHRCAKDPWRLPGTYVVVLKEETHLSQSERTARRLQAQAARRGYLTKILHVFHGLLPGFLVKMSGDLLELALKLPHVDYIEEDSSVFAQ

% Inhibition PCSK9 (Concentration 10 μM): 25%
% Inhibition PCSK9 (Concentration 100 μM): 17%
Compound: Cc1oc(-c2ccccc2)nc1CC1COC(C)(C(=O)NCC(=O)N2CCCCC2)OC1 (stereo not shown) [Example 22, 2-methyl-5-c-((5-methyl-2-phenyloxazol-4-yl)methyl)-N-(2-oxo-2-(piperidin-1-yl)ethyl)-1,3-dioxane-2-carboxamide]

% Inhibition PCSK9 (Concentration 10 μM): 15%
% Inhibition PCSK9 (Concentration 100 μM): 16%
Compound: Cc1oc(-c2ccccc2)nc1CC1COC(C)(C(=O)NCC(=O)NCC2CCOCC2)OC1 (stereo not shown) [Example 25, 2-methyl-5-c-((5-methyl-2-phenyloxazol-4-yl)methyl)-N-(2-oxo-2-(((tetrahydro-2H-pyran-4-yl)methyl)amino)methyl)-1,3-dioxane-2-carboxamide]

% Inhibition PCSK9 (Concentration 10 μM): 8%
% Inhibition PCSK9 (Concentration 100 μM): 12%
Compound: Cc1oc(-c2ccccc2)nc1CC1COC(C)(C(=O)NCCC(=O)N2CCS(=O)(=O)CC2)OC1 (stereo not shown) [Example 29, N-(3-(1,1-dioxidothiomorpholino)-3-oxopropyl)-2-methyl-5-c-((5-methyl-2-phenyloxazol-4-yl)methyl)-1,3-dioxane-2-carboxamide]

% Inhibition PCSK9 (Concentration 1 μM, 1 µM): 18%
% Inhibition PCSK9 (Concentration 10 μM): 19%
% Inhibition PCSK9 (Concentration 100 μM, 100 µM): 19%
Compound: Cc1oc(-c2ccccc2)nc1CCC1COC(C)(C(=O)NO)OC1 (stereo not shown) [Example 35, N-hydroxy-2-methyl-5-c-(2-(5-methyl-2-phenyloxazol-4-yl)ethyl)-1,3-dioxane-2-carboxamide]

The remaining lines, values behind:

Compound: Cc1oc(-c2ccccc2)nc1CC1COC(C)(C(=O)NOCc2ccccc2)OC1 (stereo not shown) [Example 1, N-(benzyloxy)-2-methyl-5-((5-methyl-2-phenyloxazol-4-yl)methyl)-1,3-dioxane-2-carboxamide]
inhibition at 5 µM: 25%
inhibition at 10 µM (Concentration 10 μM): 30%
inhibition at 100 µM (Concentration 100 μM): 32%

Compound: Cc1oc(-c2ccccc2)nc1CC1COC(C)(C(=O)NCC2CCOCC2)OC1 (stereo not shown) [Example 9, 2-methyl-5-c-((5-methyl-2-phenyloxazol-4-yl)methyl)-N—((tetrahydro-2H-pyran-4-yl)methyl)-1,3-dioxane-2-carboxamide]
% Inhibition PCSK9 (Concentration 10 μM): 15%
% Inhibition PCSK9 (Concentration 100 μM): 12%

Compound: Cc1oc(-c2ccccc2)nc1CC1COC(C)(C(=O)N2CCOCC2)OC1 (stereo not shown) [Example 11, (2-methyl-5-((5-methyl-2-phenyloxazol-4-yl)methyl)-1,3-dioxan-2-yl)(morpholino)methanone]
inhibition at 5 µM: 20%
inhibition at 10 µM (Concentration 10 μM): 30%
inhibition at 100 µM (Concentration 100 μM): 44%

Compound: Cc1oc(-c2ccccc2)nc1CC1COC(C)(C(=O)N2CCCCC2)OC1 (stereo not shown) [Example 15, (2-methyl-5-c-((5-methyl-2-phenyloxazol-4-yl)methyl)-1,3-dioxan-2-yl)(piperidin-1-yl)methanone]
% Inhibition PCSK9 (Concentration 10 μM): 11%
% Inhibition PCSK9 (Concentration 100 μM): 4%

Compound: Cc1oc(-c2ccccc2)nc1CC1COC(C)(C(=O)N2CCSCC2)OC1 (stereo not shown) [Example 16, (2-methyl-5-c-((5-methyl-2-phenyloxazol-4-yl)methyl)-1,3-dioxan-2-yl)(thiomorpholino)methanone]
% Inhibition PCSK9 (Concentration 100 μM): 12%

Compound: Cc1oc(-c2ccccc2)nc1CC1COC(C)(C(=O)N2CCS(=O)(=O)CC2)OC1 (stereo not shown) [Example 17, (1,1-dioxidothiomorpholino)(2-methyl-5-c-((5-methyl-2-phenyloxazol-4-yl)methyl)-1,3-dioxan-2-yl)methanone]
% Inhibition PCSK9 (Concentration 100 μM): 15%

Compound: Cc1oc(-c2ccccc2)nc1CC1COC(C)(C(=O)NCC(=O)N2CCOCC2)OC1 (stereo not shown) [Example 18, 2-methyl-5-((5-methyl-2-phenyloxazol-4-yl)methyl)-N-(2-morpholino-2-oxoethyl)-1,3-dioxane-2-carboxamide]
inhibition at 1 µM (Concentration 1 μM): 40%
inhibition at 100 µM (Concentration 100 μM): 39%

Compound: Cc1oc(-c2ccccc2)nc1CC1COC(C)(C(=O)NCC(=O)N2CCSCC2)OC1 (stereo not shown) [Example 23, 2-methyl-5-c-((5-methyl-2-phenyloxazol-4-yl)methyl)-N-(2-oxo-2-thiomorpholinoethyl)-1,3-dioxane-2-carboxamide]
% Inhibition PCSK9 (Concentration 10 μM): 21%
% Inhibition PCSK9 (Concentration 100 μM): 22%
